Source: the OPERA property sets (Mansouri et al. 2018)

Row | Compound | logP
1 | CCN1CC(C(O)C(CC2CCCCC2)NC(=O)C(Cc2cnc[nH]2)NC(=O)C(Cc2ccc(OC)cc2)NC(=O)N2CC(O)C(O)C2)OC1=O (stereo unspecified) | 1.22
2 | CCCCc1cc(OC)c(CC(C)N)cc1OC (stereo unspecified) | 4
3 | CCN(CC)C(=O)c1cccc(C)c1 | 2.18
4 | Oc1ccc(C2(O)CCN(CCCSc3ccc(F)cc3)CC2)cc1 | 4.17
5 | CCCCCCCCc1ccc(C2C(=O)c3ccccc3C2=O)cc1 | 6.93
6 | COC(=O)CCC(C)=O | -0.13
7 | CCCC(=O)OCC(=O)C1(O)CCC2C3CCC4=CC(=O)CCC4(C)C3C(O)CC21C (stereo unspecified) | 2.91
8 | Nc1cccc(I)c1 | 2.86
9 | CC(C)C(=O)O | 0.94
10 | CCN(CC)CCCCCCC(=O)Nc1c(C)cccc1C | 3.48
11 | CCCCCCCCC=CCCCCCCCC(=O)O | 7.64
12 | C[C@@H]1Cc2c(Cl)cc(C(=O)N[C@@H](Cc3ccccc3)C(=O)O)c(O)c2C(=O)O1 | 4.74
13 | O=C1C(N2CCN(CCO)CC2)=C(N2CC2)C(=O)C(N2CCN(CCO)CC2)=C1N1CC1 | -0.77
14 | CCCCOCC(O)Cn1ccnc1[N+](=O)[O-] (stereo unspecified) | 1.11
15 | O=C(O)CN1C(=O)C=CC1=O | -0.14
16 | N#Cc1ccc(C[Se]CCC(=O)O)cc1 | 1.37
17 | NC(=O)c1cc(Cl)ccc1NCCO | 1.26
18 | CC1Cc2ccccc2CN1 (stereo unspecified) | 1.93
19 | COc1cc(Br)c(Cc2cnc(N)nc2N)cc1OC | 1.64
20 | CCN(CC)CCCCCC(=O)Nc1c(C)cccc1C | 2.95
21 | CC(O)c1ccc2ccccc2c1 (stereo unspecified) | 2.68
22 | CCOCCNCC(O)COc1ccc(-c2ncc(-c3cccs3)[nH]2)cc1 (stereo unspecified) | 2.25

Row | Compound | logP
23 | Cc1ccccc1OCC(O)CNCCOc1ccc(C(N)=O)cc1 (stereo unspecified) | 2.22
24 | C=C1CCC2C(C1)c1c(OCc3ccc(-c4ccccc4)cc3)cc(CCCCC)cc1OC2(C)C (stereo unspecified) | 11.3
25 | CC(C)OC(=O)[C@@H](N)Cc1ccc(O)c(O)c1 | 0.57
26 | CN(C)c1nc(N(C)C)nc(N(C)O)n1 | 1.61
27 | O=C1Nc2ccccc2C1c1ccccc1 (stereo unspecified) | 2.59
28 | CCN(CC)C(C)C(=O)Nc1c(C)cccc1C (stereo unspecified) | 2.73
29 | CCCc1ccc(N)cc1 | 2.4
30 | CC(=O)Nc1ccccc1C(N)=O | 0.32
31 | CC1OC(OC2C(O)CC(OC3C(O)CC(OC4CCC5(C)C(CCC6C5CCC5(C)C(C7=CC(=O)OC7)C(O)CC65O)C4)OC3C)OC2C)CC(O)C1O (stereo unspecified) | 1.67
32 | Cc1cnc2n(c1=O)CCCC2C (stereo unspecified) | 0.69
33 | C#CCC(O)(CC#C)c1cccnc1 | 1.29
34 | CCC1OC(=O)C(C)C(OC2CC(C)(OC)C(O)C(C)O2)C(C)C(OC2OC(C)CC(N(C)C)C2O)C(C)(O)CC(C)C(=O)C(C)C(OC(C)=O)C1(C)O (stereo unspecified) | 2.85
35 | CCc1ccc(C)cc1 | 3.63
36 | O=C(O)/C=C/Oc1ccc(Cl)cc1Cl | 3.46
37 | CCCCCCCCC(C)(C)c1ccc(C2CCCC(O)C2)c(O)c1 (stereo unspecified) | 8.16
38 | C=C(C)C(=O)OCC(C)(C)COC(=O)C(=C)C | 2.79
39 | CC(C)NCC(O)c1ccc2ccccc2c1 (stereo unspecified) | 3
40 | Cc1cccc(C)c1NC(=O)CCCN | 0.71
41 | Brc1cccc(N=C2NCCN2)c1Br | 2.16
42 | O=C(O)Cc1cccc2ccccc12 | 2.24
43 | O=c1c2ccccc2nc2n1CCC2 | 1.07
44 | O=C(Cn1ccnc1[N+](=O)[O-])N(CCO)CCO | -1.64

Row | Compound | logP
45 | Cc1ccc(C(=O)c2ccc(CC(=O)O)n2C)cc1 | 2.79
46 | OC(CCN1CCCCC1)(c1ccccc1)C1CCCCC1 (stereo unspecified) | 4.49
47 | CC1OC(OC2C(O)CC(OC3CCC4(C)C(CCC5C4CCC4(C)C(C6=CC(=O)OC6)CCC54O)C3)OC2C)CC(O)C1O (stereo unspecified) | 2.15
48 | CCc1ccc(C2C(=O)c3ccccc3C2=O)cc1 | 3.92
49 | CCCCc1ccc(N2C(N)=NC(N)=NC2(C)C)cc1 | 2.66
50 | Cc1ncc(NS(=O)(=O)c2ccc(N)cc2)c(C)n1 | 0.59
51 | CCCCCc1cc(OC)c2c(c1)OC(C)(C)C1CC=C(C)CC21 (stereo unspecified) | 8.06
52 | CCOC(=O)C=COc1ccccc1 | 3.18
53 | CCC1OC(=O)C(C)C(OC2CC(C)(OC)C(OC(C)=O)C(C)O2)C(C)C(OC2OC(C)CC(N(C)C)C2O)C(C)(O)CC(C)C(=O)C(C)C(O)C1C (stereo unspecified) | 3.23
54 | CCOC(=O)OCCC(SC(=O)OCC)=C(C)N(C=O)CC1=C(C(=O)OCOC(=O)C(C)(C)C)N2C(=O)C(NC(=O)C(=NOC)c3csc(N)n3)C2SC1 (stereo unspecified) | 3.34
55 | CCCCNC(=O)NS(=O)(=O)c1ccc(N)cc1 | 1.01
56 | CCN(CCO)Cc1cccc(COc2ccccc2)c1 | 3.04
57 | CNCCc1ccccc1 | 1.91
58 | CCNC(=O)c1cc(Cl)cc(C)c1O | 3.55
59 | OC(CNCCc1ccncc1)COc1ccc(-c2ncc(-c3cccs3)[nH]2)cc1 (stereo unspecified) | 2.25
60 | CCCCCCCCC(=O)O | 3.42
61 | c1cc2cccc3c4cccc5cccc(c(c1)c23)c54 | 6.25
62 | COC(=O)N(C)SN(C)C(=O)ON=C(C)SC | 1.4
63 | [O-][n+]1ccc(NO)c2ccccc21 | 0
64 | O=C(NC12CC3CC(CC(C3)C1)C2)C(O)c1ccccc1 (stereo unspecified) | 3.09
65 | Oc1ccc(O)c2ccccc12 | 1.9
66 | C1CC2OC2CC1C1CO1 (stereo unspecified) | 0.44
